Our source for the TGI and GI50 values is PubChem BioAssay (NCI).

Several values for one entry are separate records, joined by “and”; a condition that tells them apart may be missing. Identical values can stand only once.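 Each compound was tested at five concentrations against cells in 96-well plates for 48 hours. Abbreviation: GI50, concentration required for 50% inhibition of growth. TGI: concentration producing complete growth inhibition.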

Holding throughout (assay): growth of human tumour cells (NCI), 48 h
The test system of test [1] is 786-0 renal.
The test system of test [2] is HCT-116 colon.
Test [3] relates to KM12 colon.
In test [4] the test system is NCI-H23 lung.
Test [5] concerns NCI-H460 lung.
For test [6], the system named is NCI-H522 lung.
Test [7] relates to SK-MEL-2 melanoma.
The test system of test [8] is M14 melanoma.
For test [9], the system named is SF-539 CNS.
Test [10] concerns LOX IMVI melanoma.

`C#Cc1cccc(NC(=O)/C=C\C(=O)O)c1`: the TGI in test [1], in test [2], in [3], in test [4], in test [5] and in [6] was more than 100000 nM each time. Besides, in test [7], the TGI was more than 100000 nM.
For `CS(=O)(=O)OCCN1CCN(C(=O)c2ccc(Cl)c3c(Nc4ccc(S(=O)(=O)N=C(N)N)cc4)c4ccccc4nc23)CC1`, the TGI in test [1], in [2], in test [3], in test [8], in [4] and in [5] was more than 100000 nM throughout. Further, the TGI in test [9] and in test [7] was more than 100000 nM each time.
For the compound `N=C(N)n1cc(/C=N/N=C(N)N)cn1`, the TGI in test [1], in test [2], in test [3], in test [10], in test [8] and in test [4] was more than 100000 nM in each case. Also, the TGI in test [5], in test [6] and in [9] was more than 100000 nM throughout.
Regarding `CCOC1c2nc3ccccc3nc2-c2ccccc2N1C(C)=O` (configuration not stated), the TGI in test [1], in test [2], in test [3], in test [8], in [4] and in [5] was more than 100000 nM throughout. The TGI in test [9] and in [7] was more than 100000 nM each time.
`CC(C)(C)C1=NO[C@H]2[C@@H](NC(=O)c3ccccc3)CC[C@@H]12`: the TGI in test [1], in test [2], in [3], in test [10], in test [8] and in test [4] was more than 100000 nM throughout. In addition, the TGI in test [5], in test [6] and in [9] was more than 100000 nM each time.
`[O-][n+]1c2cccc(O)c2[n+]([O-])c2cccc(O)c21`: the TGI in test [1], in test [2], in test [3], in test [10], in test [8] and in test [4] was more than 100000 nM in each case. For the same compound, the TGI in [5], in test [6] and in test [9] was more than 100000 nM in each case.
For the compound `CCc1c(OC(C)=O)c2c(NC3OC(COC(C)=O)C(OC(C)=O)C(OC(C)=O)C3OC(C)=O)nc(SC)nc2oc1=O` (configuration not stated), the TGI in [1], in test [2], in test [3], in test [10], in test [8] and in test [4] was more than 100000 nM each time. Further, the TGI in [5], in test [9] and in test [7] was more than 100000 nM throughout.
With `CCOC(=O)C1C(c2ccc(Br)cc2)N(Cc2ccccc2)C(c2ccc(Br)cc2)C(C(=O)OC)S1(=O)=O` (configuration not stated), the TGI in [1], in [2], in test [3], in test [10], in [8] and in [4] was more than 100000 nM throughout. Moreover, the TGI in [5], in test [6] and in [7] was more than 100000 nM each time.
Consider `CCCCCCCCCCCCCCCC(=O)OCC1OC(n2cc(F)c(=O)[nH]c2=O)C(NC(=O)OCc2ccccc2)C(O)C1O` (configuration not stated), for which the TGI was found to be 36200 nM in test [1]; 30400 nM in test [2]; 45000 nM in test [3]; 32500 nM in test [10]; 33100 nM in [8]; 43600 nM in [4]. The TGI amounted to 38900 nM in test [5], 30900 nM in test [9] and 32000 nM in test [7].
Turning to `CCN(CC)CCNc1n[n+]([O-])c2cc([N+](=O)[O-])ccc2[n+]1[O-]`, the GI50 in test [1] is 462 nM and 239 nM and 200 nM; in test [4], 117 nM and 275 nM and 146 nM; in [5] it was 264 nM and 35.3 nM and 93.9 nM; in test [9] it was 809 nM and 402 nM and 355 nM; in test [7], 1390 nM and 639 nM and 575 nM. Besides, the TGI in test [1] is 3100 nM and 1630 nM and 1680 nM; in test [2], 2790 nM and 2390 nM and 2300 nM; in [3] it was 2720 nM and 2990 nM and 2410 nM; in test [10] it was 2060 nM and 1960 nM and 1830 nM; in [8] it was 2170 nM and 2630 nM and 2020 nM; in test [4], 1550 nM and 1580 nM and 1940 nM. The TGI in test [5] was 1630 nM and 1160 nM and 1280 nM; in test [9], 2570 nM and 1360 nM and 1380 nM; in test [7] it was 3000 nM and 2020 nM and 2880 nM.
As for `N#Cc1ccccc1Sc1ccccc1N`, the TGI in [1], in test [3], in test [10], in test [4], in [5] and in [9] was more than 100000 nM throughout. The same compound yielded a TGI in test [7] of more than 100000 nM.
Turning to `CCN(CC)CCCC(Nc1c2ccc(Cl)cc2nc2ccc(OC)cc12)c1ccc(Cl)cc1` (configuration not stated), the GI50 in test [1] is 1290 nM; in test [3], 1520 nM; in test [8] it was 199 nM; in [4], 1430 nM; in [5] it was 1330 nM; in test [6], 1460 nM. Moreover, the values for the GI50 in test [9] and in test [7] were 1560 nM and 1890 nM, respectively. Further, the TGI in [1] was 2910 nM; in test [3], 2990 nM; in test [8], 411 nM; in [4], 2980 nM; in test [5], 2880 nM; in test [6], 3090 nM. Further, the TGI in test [9] is 3100 nM; in test [7], 3630 nM.
For `C[C@]12CCc3nc(Nc4ccc(O)cc4)sc3C1=CC[C@@H]1[C@@H]2CC[C@]2(C)/C(=N/NC(N)=S)CC[C@@H]12`, the GI50 in test [1] was 1640 nM; in [2] it was 1150 nM; in test [3], 1260 nM; in test [10], 1520 nM; in [8], 1180 nM; in [4] it was 1800 nM. Further, the GI50 was 525 nM in [5], 1490 nM in [9] and 1690 nM in test [7]. The TGI was 3090 nM in test [1]; 2570 nM in test [2]; 2740 nM in test [3]; 2860 nM in test [10]; 2900 nM in test [8]; 4360 nM in test [4]. The figures for the TGI in test [5], in test [9] and in test [7] were 1940 nM, 3090 nM and 3520 nM, respectively.
